# Source: article PMC12053792 (Journal of Peptide Science, 2025)
# “Also recorded” adds a separate entry of the source.
# Legend:
# [1] = tested on: TLR2; conditions: Pam2Cys adjuvanting moiety; ref [19]; cited from earlier work
# From the text: Due to the small size of many CTAs (several under 100 amino acids in length), it is possible to produce the whole CTA synthetically via solid‐phase peptide synthesis (SPPS), coupled with native chemical ligation if required. […] An additional benefit of using palmitoyl functionality is the ability of the fatty acid chains to be incorporated into nanoparticles via sel ...
# [2] = tested on: anti‐BAGE4 antibody; assay: Competitive ELISA, antibody recognition of BAGE4 antigen; format: binding, rabbit; conditions: 11 antigen concentrations between 1000 and 0.98 ng/mL, anti‐BAGE4 antibody SAB4301150 (1:250), 1 h, BAGE4-coated 384‐well plate, PBST with 0.05% Tween 20 as negative control, HRP/TMB, absorbance 450 nm
# Experimental: Antibody–antigen complexes were then added to 384‐well plates which were precoated with 10 ng/mL of antigen. The secondary antibody, specific to the primary and conjugated to horseradish peroxidase (HRP) enzyme (produced in rabbit), was added, followed by TMB for colour development.
# The antigen was diluted to 100 ng/ml in carbonate-bicarbonate
# buffer, then 60 μL of the antigen dilution was pipetted into the wells of Maxisorp 384 well plate.
# The plate was diluted as required (23 dilutions were prepared) and incubated at 4 °C under
# foil overnight. The coating solution was removed and the plate washed three times by filling
# the wells with 200 μL PBST. The solutions or washes were removed by flicking the plate over
# a sink, then patting the plate dry with a paper towel.
# Remaining protein-binding sites in the coated wells were blocked by adding 40 μL blocking
# buffer (3% whey, 0.05% NaN3, 0.1% EDTA in PBS) to each well. The plates were covered
# with foil and incubated for 2 h at rt or overnight at 4 °C. Plates were washed three times by
# filling the wells with 200 μL PBS.
# Incubation with primary and secondary antibody
# In an Abgene 96 well plate, 8 dilutions of primary antibody (anti-BAGE4 produced in rabbit;
# Sigma Aldrich SAB4301150, and anti-NY-ESO-1 produced in mouse; Sigma Aldrich N2038) […]
# The optical density at 450 nm was recorded. […]
# [3] = tested on: IFNγ‐secreting T‐cells; assay: In vivo immunisation, IFNγ ELISpot on splenocytes, BALB/c mice
# Experimental: Animal experiments were carried out with ethical approval from University of Nottingham ethical review board and under a Home Office approved project license (PP2706800). Mice were dosed with 10 nmol of material in 50 μL at Days 1, 8 and 15 (n = 3). IFNϒ ELISpot assays on splenocytes were conducted on termination at Day 21. General methods for the ELISpot can be found in the Supporting Information. Preparation of media and buffers and steps performed on Days 1 and 2 post‐termination; the ELISpot assays were performed using a laminar flow cabinet and aseptic techniques to ensure the sterility of media, reagents and plates at stages before development of the ELISpot. Development of the ELISpot on Day 4 posttermination was performed on the laboratory bench.
# The response was measured by count of peptide‐specific IFNγ‐secreting T‐cells by ELISpot assay. Since no studies to date have addressed T‐cell responses to BAGE4 in conventional or HLA‐A2 (HHDII/DR1) transgenic mice, conventional mice were initially selected. The H‐2d haplotype (BALB/c) strain was selected for this study as the epitope predictions for peptides that bind to MHC I and II are effective for this strain (IEDB Analysis Resource). Splenocytes from the immunised mice were tested against three predicted epitope peptides from BAGE4_18–39, which should reactivate T‐cell responses in this strain of mice when immunised with BAGE4_18–39 vaccine candidates. Lipopolysaccharide (LPS; 5 μg/mL) was used as the positive control (non‐specific stimulus of the immune system).
# In Vivo Evaluation (ELISpot Assay)
# Animal experiments were carried out with ethical approval from University of Nottingham ethical review boards and under a Home Office approved project license (PP2706800). HLA-HHDII/DR1 (HLA-A2.1+/+ HLADR1+/+, Pasteur Institute) transgenic mice knocked out for murine MHC-I and II and expressing chimeric HLA-A2 (HHDII) and human HLA-DR1 or Balb/c mice (Charles River) aged 6-12 weeks were used. Mice were vaccinated with 10 ηmol of each immunogen at each timepoint. Doses were delivered subcutaneously (s.c.) in 50 µl volume on days 1, 8 and 15. No anaesthesia was used for injections. Responses were screened on day 21 after euthanasia by cervical dislocation. Preparation of media and buffers and steps performed on days 1 and 2 of the ELISpot assay were performed using a laminar flow cabinet and aseptic techniques to ensure the sterility of media, reagents and plates at stages before development of the ELISpot. Development of the ELISpot on day 4 can be performed on the […]
# The following tables summarise the details of the vaccine candidates and vaccination procedure including (dose time points): […]
# Table S6. Summary of the injection schedule (including dose concentration and number) for the following vaccine candidates: BAGE418-39 candidate (co-administered with IFA), Cys-BAGE4-MalLNP conjugate, Pam2Cys-SK4-BAGE18-39 (2), and 2-LNP using BALB/c mice. […]
# peptide mixed splenocytes
# 1 with standard 10 nmol SC Day 1,8 & 15 3 Day 21 ELISA on
# 3 Pam2Cys-SK4- 10 nmol SC Day 1, 8 & 3 Day 1 Experiment
# Pam2Cys-SK4- 10 nmol Day 1, 8 & Experiment
# Elispot assays were performed using murine IFNγ capture and detection reagents according to the manufacturer’s instructions (Mabtech).
# Day 1: Coating of plates with capture antibody
# 20 μL 35% ethanol was added to each well then discarded. Each plate was then washed 4 times with 200 μL of sterile distilled water per well. […]
# [4] = tested on: BALB/c mice; assay: In vivo toxicity in healthy BALB/c mice; conditions: antigen alone / components administered separately
# [5] = tested on: CD8+ cells; conditions: models vaccinated against NY‐ESO‐1; ref [34], [35], [36]; cited from earlier work
# From the text: (§1) Two CTA epitopes; NY‐ESO‐1_157‐165 and BAGE4_18–39 were employed as the antigenic components in our studies. […] BAGE4_18–39 represents the entire BAGE4 CTA minus the signal peptide; this antigen is expressed in 22% of melanomas and 30% of infiltrating bladder carcinomas; to our knowledge, it has not been evaluated in vivo. Inclusion of the ...
# [6] = tested on: HLA‐A2; conditions: ref [34], [35], [36]; cited from earlier work
# From the text: as §1
molecule,measurement,setting,value
CCCCCCCCCCCCCCCC(=O)OCC(CSCC(N)C(=O)O)OC(=O)CCCCCCCCCCCCCCC (stereo not shown),Potency relative to (R)‐analogue,[1],hundredfold decrease in potency compared to the (R)‐analogue
"BAGE4_18–39: small (22 amino acid, excluding the signal peptide) underexplored melanoma antigen (RLMKEESPVVSWWLEPEDGTAL; UniProt Q86Y28 18-39, looked up, fragment)",IC50,[2],11.4 nM
same,"T‐cell response, median","[3]; BAGE4 peptide + IFA, 10 nmol in 50 μL s.c., days 1, 8, 15, n = 3, day 21, restimulated with BAGE4_18–39, IFNγ ELISpot count",511
same,T‐cell response / ANOVA significance (in words),"[3]; BAGE4 peptide + IFA, 10 nmol s.c., days 1, 8, 15, n = 3, restimulated with BAGE4_18–32",slightly lower responses
same,T‐cell response / ANOVA significance (in words),"[3]; BAGE4 peptide + IFA, 10 nmol s.c., days 1, 8, 15, n = 3, restimulated with BAGE4_18–39",good responses
same,T‐cell response / ANOVA significance (in words),"[3]; BAGE4 peptide + IFA, 10 nmol s.c., days 1, 8, 15, n = 3, restimulated with BAGE4_22–31",almost no response; also recorded: no significance
same,Immunogenicity (in words),"[3]; BALB/c mice, 10 nmol s.c., days 1, 8 and 15, n = 3, IFNγ ELISpot day 21",immunogenic in conventional BALB/c mice
same,Toxicity of antigen or components administered separately,[4],does not show any toxicity
SLLMWITQC [NY‐ESO‐1_157‐165],Immunogenicity / T‐cell reactivation (in words),[5],spontaneously immunogenic; also recorded: reactivate T‐cell responses (CD8+ cells)
same,Binding to HLA‐A2 (in words),[6],able to bind to HLA‐A2
